The test system of series [1] is Mus musculus. Briefly: Analgesic activity in Mus musculus Swiss albino (mouse) assessed as paw licking and jumping latency at 100 mg/kg, ip measured after 30 min by hot plate test. The class given is functional. The following applies: route intraperitoneal.
Series [2] relates to Mus musculus. Nature of the series: Toxicity in Mus musculus Swiss albino (mouse) assessed as mortality at 100 mg/kg, ip. The format is organism-based. Conditions: in vivo. Further details: dose 100 mg/kg, route intraperitoneal.
Series [3] deals with Mus musculus. Nature of the series: Analgesic activity in Mus musculus Swiss albino (mouse) assessed as inhibition of acetic acid-induced writhing at 100 mg/kg, ip measured after 30 min relative to control. The class given is functional. The following applies: 0.5 h, route intraperitoneal.
Series [4] has as its system Mus musculus. Briefly: Neurotoxicity in Mus musculus Swiss albino (mouse) assessed as falling latency at 100 mg/kg, ip by Rota-Rod test. The class given is toxicity, organism-based. Further details: dose 100 mg/kg, route intraperitoneal. The following applies: in vivo.
For series [5], the system named is Mus musculus. Nature of the series: Neurotoxicity in Mus musculus Swiss albino (mouse) assessed as effect on horizontal locomotory activity at 100 mg/kg, ip. Further details: dose 100 mg/kg, route intraperitoneal. The following applies: in vivo. The format is toxicity, organism-based.
The test system of series [6] is Mus musculus. Briefly: Neurotoxicity in Mus musculus Swiss albino (mouse) assessed as effect on vertical locomotory activity at 100 mg/kg, ip. Conditions: in vivo. Further details: dose 100 mg/kg, route intraperitoneal. The class given is toxicity, organism-based.
The test system of series [7] is Mus musculus. Briefly: Analgesic activity in Mus musculus Swiss albino (mouse) at 100 mg/kg, ip measured after 30 min by tail clip test. The class given is functional. The following applies: route intraperitoneal.

By inhibition in vivo is commonly meant how much of the control response was suppressed.

In the case of `CC(=O)Nc1ccc(O)cc1` [ACETAMINOPHEN], the Activity in the series on Mus musculus [1] is recorded as 51.61%; in the series with Mus musculus [2], “Non-toxic”; with Mus musculus [4], “Non-toxic”; in the series on Mus musculus [5], “Non-toxic”; in the series on Mus musculus [6], “Non-toxic”. Further, the inhibition in vivo at 100 mg/kg in the series with Mus musculus [3] was found to be 29.4%.
As for `O=C(CSc1ccccc1C(=O)O)Nc1ccccc1`, the Activity in the series on Mus musculus [1] was 79.98%; in the series with Mus musculus [2] it was “Non-toxic”; in the series with Mus musculus [4], “Non-toxic”; in the series on Mus musculus [5], “Non-toxic”; in the series on Mus musculus [6] it was “Non-toxic”. The same compound gave an MPE with Mus musculus [7] of 52.1%. Further, the inhibition in vivo at 100 mg/kg in the series on Mus musculus [3] came to 54.8%.
In the case of `Cc1ccc(NC(=O)CSc2ccccc2C(=O)O)cc1`, the Activity with Mus musculus [1] was 89.37%; with Mus musculus [2], “Non-toxic”; in the series on Mus musculus [4], “Non-toxic”; in the series with Mus musculus [5] it was “Non-toxic”; with Mus musculus [6], “Non-toxic”. Moreover, in the series on Mus musculus [7], the MPE stood at 72.31%. The inhibition in vivo at 100 mg/kg in the series with Mus musculus [3] worked out at 76.3%.
Consider `O=C(CSc1ccccc1C(=O)O)Nc1ccc(Br)cc1`, for which the Activity with Mus musculus [1] is recorded as 8.48%; with Mus musculus [2], “Non-toxic”; with Mus musculus [4], “Non-toxic”; in the series with Mus musculus [5] it was “Non-toxic”; in the series with Mus musculus [6], “Non-toxic”. In the series on Mus musculus [7], this compound registered an MPE of 13.71%. Further, the inhibition in vivo at 100 mg/kg in the series with Mus musculus [3] worked out at 9.04%.
Consider `COc1ccc(NC(=O)CSc2ccccc2C(=O)O)cc1`, for which the Activity in the series with Mus musculus [1] was 35.12%; in the series with Mus musculus [2], “Non-toxic”; in the series on Mus musculus [4], “Non-toxic”; with Mus musculus [5] it was “Non-toxic”; with Mus musculus [6], “Non-toxic”. For the same compound, the MPE in the series on Mus musculus [7] is reported as 25.01%. Moreover, the inhibition in vivo at 100 mg/kg with Mus musculus [3] amounted to 27.7%.
Regarding `O=C(CSc1ccccc1C(=O)O)Nc1ccc(Cl)cc1`, the Activity with Mus musculus [1] is given as 65.73%; in the series with Mus musculus [2], “Non-toxic”; in the series with Mus musculus [4] it was “Non-toxic”; in the series on Mus musculus [5], “Non-toxic”; in the series with Mus musculus [6], “Non-toxic”. The same compound came in with an MPE with Mus musculus [7] of 43.94%. The inhibition in vivo at 100 mg/kg in the series with Mus musculus [3] is 49.7%.
For the compound `O=C(CSc1ccccc1C(=O)O)Nc1ccc(C(=O)O)cc1`, the Activity with Mus musculus [1] is recorded as 18.07%; in the series on Mus musculus [2], “Non-toxic”; in the series with Mus musculus [4], “Non-toxic”; in the series with Mus musculus [5] it was “Non-toxic”; in the series with Mus musculus [6] it was “Non-toxic”. The MPE in the series on Mus musculus [7] turned out to be 17.05%. In the series on Mus musculus [3], the inhibition in vivo at 100 mg/kg is 20.3%.
Consider `O=C(O)c1ccccc1S` [THIOSALICYLIC ACID], for which the Activity is 62.49% in the series on Mus musculus [1]; “Non-toxic” in the series on Mus musculus [2]; “Non-toxic” with Mus musculus [4]; “Non-toxic” in the series with Mus musculus [5]; “Non-toxic” in the series on Mus musculus [6]. The compound also displayed an MPE in the series with Mus musculus [7] of 40.37%. Also, in the series with Mus musculus [3], the inhibition in vivo at 100 mg/kg worked out at 33.9%.

For the origin of these results see ChEMBL document CHEMBL3045065, “Synthesis and analgesic effects of 2-(2-carboxyphenylsulfanyl)-N-(4-substitutedphenyl)acetamide derivatives” (Med Chem Res, 2011).
